Tests used:
Assay type in all cases: in vivo
[1] = test system: barnyardgrass (Echinochloa crus-galli); test: Test A preemergence, barnyardgrass; conditions: Preemergence; for Barnyardgrass plant response rating: 125 g ai/ha, visual injury on 0 to 100 scale (0 no effect, 100 complete control), approximately 10 days; for Plant response rating, Barnyardgrass: 0 to 100 scale (0 no effect, 100 complete control)
How it was run: (§1)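 Whole-plant herbicidal screen in pots of loam blended with sand. Sprays used a surfactant-containing, non-phytotoxic solvent vehicle. Timing was preemergence soil-directed at planting or postemergence at the one- to two-leaf stage (2–10 cm).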

kochia (Bassia scoparia) [2] = test: Test A preemergence, kochia; conditions: Preemergence; for Kochia plant response rating: 125 g ai/ha, visual injury on 0 to 100 scale (0 no effect, 100 complete control), approximately 10 days; for Plant response rating, Kochia: 0 to 100 scale (0 no effect, 100 complete control)
How it was run: as §1

[3] = test system: ragweed (common ragweed, Ambrosia artemisiifolia); test: Test A preemergence, ragweed; conditions: Preemergence; for Ragweed plant response rating: 125 g ai/ha, visual injury on 0 to 100 scale (0 no effect, 100 complete control), approximately 10 days; for Plant response rating, Ragweed: 0 to 100 scale (0 no effect, 100 complete control)
How it was run: as §1

[4] = test system: Ryegrass, Italian (Italian ryegrass, Lolium multiflorum); test: Test A preemergence, Ryegrass, Italian; conditions: Preemergence; for Ryegrass, Italian plant response rating: 125 g ai/ha, visual injury on 0 to 100 scale (0 no effect, 100 complete control), approximately 10 days; for Plant response rating, Ryegrass, Italian: 0 to 100 scale (0 no effect, 100 complete control)
How it was run: as §1

[5] = test system: Foxtail, Giant (giant foxtail, Setaria faberi); test: Test A preemergence, Foxtail, Giant; conditions: Preemergence; for Foxtail, Giant plant response rating: 125 g ai/ha, visual injury on 0 to 100 scale (0 no effect, 100 complete control), approximately 10 days; for Plant response rating, Foxtail, Giant: 0 to 100 scale (0 no effect, 100 complete control)
How it was run: as §1

[6] = test system: pigweed (Amaranthus retroflexus); test: Test A preemergence, pigweed; conditions: for Pigweed plant response rating: 125 g ai/ha, visual injury on 0 to 100 scale (0 no effect, 100 complete control), approximately 10 days; for Plant response rating, Pigweed: 0 to 100 scale (0 no effect, 100 complete control)
How it was run: (§2)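 Preemergence: seeded pots of loam plus sand received a directed soil spray. Postemergence: seedlings at one to two leaves, 2 to 10 cm high, were oversprayed. Each compound was formulated in a non-phytotoxic solvent mix that included a surfactant.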

[7] = test system: barnyardgrass (Echinochloa crus-galli); test: Test A postemergence, barnyardgrass; conditions: Postemergence, 0 to 100 scale (0 no effect, 100 complete control); for Barnyardgrass plant response rating: 500 g ai/ha, visual injury vs untreated controls after approx. 10 days
How it was run: as §2

kochia (Bassia scoparia) [8] = test: Test A postemergence, kochia; conditions: Postemergence; for Kochia plant response rating: 500 g ai/ha, visual injury vs untreated controls after approx. 10 days
How it was run: as §1

[9] = test system: ragweed (common ragweed, Ambrosia artemisiifolia); test: Test A postemergence, ragweed; conditions: Postemergence; for Ragweed plant response rating: 500 g ai/ha, visual injury vs untreated controls after approx. 10 days
How it was run: as §1

[10] = test system: Ryegrass, Italian (Italian ryegrass, Lolium multiflorum); test: Test A postemergence, Ryegrass, Italian; conditions: Postemergence; for Ryegrass, Italian plant response rating: 500 g ai/ha, visual injury vs untreated controls after approx. 10 days
How it was run: as §1

[11] = test system: Foxtail, Giant (giant foxtail, Setaria faberi); test: Test A postemergence, Foxtail, Giant; conditions: Postemergence; for Foxtail, Giant plant response rating: 500 g ai/ha, visual injury vs untreated controls after approx. 10 days
How it was run: as §1

[12] = test system: pigweed (Amaranthus retroflexus); test: Test A postemergence, pigweed; conditions: Postemergence; for Pigweed plant response rating: 500 g ai/ha, visual injury vs untreated controls after approx. 10 days
How it was run: as §1

[13] = test system: wheat (Triticum aestivum); test: Test A postemergence, wheat; conditions: Postemergence; for Wheat plant response rating: 500 g ai/ha, visual injury vs untreated controls after approx. 10 days
How it was run: as §2

corn (Zea mays) = test: Test A postemergence, corn; conditions: Postemergence; for Corn plant response rating: 500 g ai/ha, visual injury vs untreated controls after approx. 10 days
How it was run: as §1

[14] = test system: blackgrass (Alopecurus myosuroides); test: Test A postemergence, blackgrass; conditions: Postemergence, 0 to 100 scale (0 no effect, 100 complete control); for Blackgrass plant response rating: 500 g ai/ha, visual injury vs untreated controls after approx. 10 days
How it was run: as §1

[15] = test system: galium (catchweed bedstraw, Galium aparine); test: Test A postemergence, galium; conditions: Postemergence; for Galium plant response rating: 500 g ai/ha, visual injury vs untreated controls after approx. 10 days
How it was run: as §2

[16] = 125 g ai/ha, visual injury approx. 10 days
[17] = 125 g ai/ha, visual injury approx. 10 days, 0 to 100 scale (0 no effect, 100 complete control)
[18] = 0 to 100 scale (0 no effect, 100 complete control)
[19] = 31 g ai/ha, visual injury, approx. 10 days
[20] = 31 g ai/ha, visual injury on 0 to 100 scale (0 no effect, 100 complete control), approx. 10 days
[21] = 125 g ai/ha, 0 to 100 scale (0 no effect, 100 complete control)

| Structure (SMILES) | Barnyardgrass plant response rating [1] | Plant response rating, Barnyardgrass ([1]; 500 g ai/ha) | Kochia plant response rating (kochia (Bassia scoparia) [2]) | Plant response rating, Kochia (kochia (Bassia scoparia) [2]; 500 g ai/ha) | Ragweed plant response rating [3] | Plant response rating, Ragweed ([3]; 500 g ai/ha) | Ryegrass, Italian plant response rating [4] | Plant response rating, Ryegrass, Italian ([4]; 500 g ai/ha) | Foxtail, Giant plant response rating [5] | Plant response rating, Foxtail, Giant ([5]; 500 g ai/ha) | Pigweed plant response rating [6] | Plant response rating, Pigweed ([6]; 500 g ai/ha) | Plant response rating, Barnyardgrass [7, 16] | Barnyardgrass plant response rating [7] | Plant response rating, Kochia (kochia (Bassia scoparia) [8]; [17]) | Kochia plant response rating (kochia (Bassia scoparia) [8]; [18]) | Plant response rating, Foxtail, Giant [11, 17] | Plant response rating, Corn (corn (Zea mays); [17]) | Plant response rating, Blackgrass [14, 16] | Plant response rating, Galium [15, 17] | also measured |
| --- | --- | --- | --- | --- | --- | --- | --- | --- | --- | --- | --- | --- | --- | --- | --- | --- | --- | --- | --- | --- | --- |
| Cc1cc(C)c(N(S(=O)(=O)C(F)(F)F)S(=O)(=O)C(F)(F)F)cc1C1=NOC(C(C)(C)C)C1 (stereo not drawn) [Compound 127] | 50 | 90 | 80 | 80 | 0 | 60 | 60 | 80 | 20 | 90 | 20 | 40 | 0 | 70 | 10 | 40 | 0 | 0 | 20 | 20 | Plant response rating, Ragweed [9, 17]: 20; Ragweed plant response rating [9, 18]: 50; Plant response rating, Ryegrass, Italian [10, 17]: 40; Ryegrass, Italian plant response rating [10, 18]: 50; Foxtail, Giant plant response rating [11, 18]: 0; Plant response rating, Pigweed [12, 17]: 0; Pigweed plant response rating [12, 18]: 40; Plant response rating, Wheat [13, 17]: 0; Wheat plant response rating [13, 18]: 0; Corn plant response rating (corn (Zea mays); [18]): 20; Blackgrass plant response rating [14]: 20; Galium plant response rating [15, 18]: 90 |
| Cc1c(NS(=O)(=O)C(F)(F)F)cc(C(=O)N2CCC3(CC2)OCCCO3)c(C)c1F [Compound 129] | 100 | 90 | 80 | 90 | 70 | 90 | 80 | 100 | 100 | 100 | 100 | 100 | 20 | 80 | 30 | 50 | 0 | 10 | 20 | 60 | Plant response rating, Ragweed [9, 17]: 60; Ragweed plant response rating [9, 18]: 90; Plant response rating, Ryegrass, Italian [10, 17]: 0; Ryegrass, Italian plant response rating [10, 18]: 70; Foxtail, Giant plant response rating [11, 18]: 30; Plant response rating, Pigweed [12, 17]: 30; Pigweed plant response rating [12, 18]: 90; Plant response rating, Wheat [13, 17]: 30; Wheat plant response rating [13, 18]: 60; Corn plant response rating (corn (Zea mays); [18]): 20; Blackgrass plant response rating [14]: 30; Galium plant response rating [15, 18]: 80 |
| Cc1cc(C)c(C2=NOC3CCCCC23)cc1NS(=O)(=O)C(F)(F)F (stereo not drawn) [Compound 131] | 90 | – | 40 | – | 40 | – | 80 | – | 100 | – | 90 | – | 80 | – | 60 | – | 10 | 20 | 0 | 90 | Plant response rating, Barnyardgrass [1, 19]: 70; Plant response rating, Kochia (kochia (Bassia scoparia) [2]; [19]): 30; Plant response rating, Ragweed [3, 19]: 0; Plant response rating, Ryegrass, Italian [4, 19]: 30; Plant response rating, Foxtail, Giant [5, 19]: 90; Plant response rating, Pigweed [6, 19]: 30; Plant response rating, Barnyardgrass ([7]; 31 g ai/ha): 20; Plant response rating, Kochia (kochia (Bassia scoparia) [8]; [20]): 40; Plant response rating, Ragweed [9, 20]: 30; Plant response rating, Ryegrass, Italian [10, 20]: 0; Plant response rating, Foxtail, Giant [11, 20]: 0; Plant response rating, Pigweed [12, 20]: 50; Plant response rating, Wheat [13, 20]: 0; Plant response rating, Corn (corn (Zea mays); [20]): 0; Plant response rating, Blackgrass ([14]; 31 g ai/ha): 20; Plant response rating, Galium [15, 20]: 60 |
| Cc1cc(C(F)(F)F)c(NS(=O)(=O)C(F)(F)F)cc1C(=O)N(C)C [Compound 132] | 60 | 100 | 0 | 70 | 80 | 90 | 80 | 100 | 30 | 90 | 100 | 100 | 0 | 40 | 20 | 20 | 20 | 0 | 0 | 70 | Plant response rating, Ragweed [9, 21]: 60; Ragweed plant response rating [9, 18]: 90; Plant response rating, Ryegrass, Italian [10, 21]: 0; Ryegrass, Italian plant response rating [10, 18]: 40; Foxtail, Giant plant response rating [11, 18]: 40; Plant response rating, Pigweed [12, 21]: 70; Pigweed plant response rating [12, 18]: 90; Plant response rating, Wheat [13, 21]: 40; Wheat plant response rating [13, 18]: 0; Corn plant response rating (corn (Zea mays); [18]): 20; Blackgrass plant response rating [14]: 0; Galium plant response rating [15, 18]: 90 |
| Cc1cc(C(F)(F)F)c(C(=O)N(C)C)cc1NS(=O)(=O)C(F)(F)F [Compound 133] | 30 | 90 | 0 | 0 | 20 | 90 | 20 | 90 | 10 | 90 | 30 | 90 | 0 | 10 | 20 | 20 | 0 | 10 | 0 | 80 | Plant response rating, Ragweed [9, 21]: 90; Ragweed plant response rating [9, 18]: 80; Plant response rating, Ryegrass, Italian [10, 21]: 30; Ryegrass, Italian plant response rating [10, 18]: 40; Foxtail, Giant plant response rating [11, 18]: 10; Plant response rating, Pigweed [12, 21]: 60; Pigweed plant response rating [12, 18]: 90; Plant response rating, Wheat [13, 21]: 0; Wheat plant response rating [13, 18]: 50; Corn plant response rating (corn (Zea mays); [18]): 10; Blackgrass plant response rating [14]: 0; Galium plant response rating [15, 18]: 90 |

Reference: patent publication US20230278972A1, “SUBSTITUTED HALOALKYL SULFONANILIDE HERBICIDES” (FMC Corporation, priority 2020, published 2023)
